Patent US6465007B1, “Transgene expression in polarized cells” (Genzyme Corporation, priority 1998, dated 2002)

Experiments:
polarized NHBE cells = assay: Binding and internalization of cationic lipid:pDNA complexes (TOTO-1 label, trypan blue quenching)
Procedure: Cells were incubated with TOTO-1 or Rh-PE labeled complexes at 37° C. for the times noted in the figure legends. Following incubation, cells were washed 7 times with cold PBS and then fixed in 2% paraformadehyde for 20 min at 4° C. The membrane of the insert was removed and mounted using immuno-mount (Shandon, Pittsburgh, Pa.) containing 2 μg/ml DAPI (Molecular Probes). Bound and internalized complexes were observed under a fluorescence microscope (Olympus, AX-70). To observe only internalized complexes, cells were washed 2 times with cold PBS and then the fluorescence of surface bound complexes was quenched by a 10 min incubation with trypan blue (1 mg/ml; Diagnostic Systems, Inc., Gibbstown, N.J.) on ice. Cells were then washed an additional 5 times with cold PBS, fixed and mounted.
Polarized NHBE cells were cultured using a modified procedure based on the methods described by Yamaya et al., American Journal of Physiology, 265:L170-L177 (1993), Jiang et al., Science, 262:424-427 (1993) and Gray et al., American Journal of Respiratory Cell & Molecular Biology, 14:104-112 (1996). Briefly, first passage NHBE cells were plated at a density of 2.5×10^5 cells/cm^2 onto inserts (Millicell-PCF, 0.4 μm pore size, Millipore) coated with human placental collagen (Sigma). The culture medium was the same as that described above for growing NHBE cells as islands. Cultures were maintained under air-liquid interface conditions starting at day 3 following the initial seeding. Cells were considered ready for use when the trans-epithelial resistance was •1000 Ωcm^2.

mouse trachea [1] = assay: Intranasal instillation of Ad2βgal-4, X-gal staining of airways; assay type: in vivo; conditions: for X-gal staining in the trachea: FIG. 4
Procedure: (§1) Female BALB/c mice 9-12 weeks of age were purchased from Taconic (Germantown, N.Y.). In some groups, mice were instilled intranasally with 25 μl of a solution containing EGTA (pH 7.5), followed by 25 μl of 5% sucrose in PBS containing Adβgal-4 (2×10^8 IU). In other groups, mice were co-instilled with 25 μl of a solution prepared by mixing equal volumes of a 2× (4×10^8 IU/25 μl) Ad2βgal-4 solution in 10% sucrose with 2×EGTA prior to instillation.
(§2) Cytochemical localization of Ogal expression in the trachea was observed using 5-bromo-4-chloro-3-indolyl-β-D-galactopyranoside (X-gal; Sigma). In brief, cannulated mouse lungs were fixed for 10 min by infusion of a fixing solution (2% paraformaldehyde and 0.2% glutaraldehyde in PBS). The lungs were then rinsed twice with 50 mM glycine in PBS, filled with X-gal solution, and stained overnight. Staining was stopped by transfering the samples into the fixing solution.
Trachea with staining levels were defined on a scale of 0 to 3, 0 indicating no cells staining for βgal, and a value of 3 indicating a large number of cells positive for the transgene. To evaluate the effect of EGTA concentration on AdV-mediated gene transfer in the trachea, mice were pre-treated with various concentrations of EGTA 0.5 h before AdV instillation. In some animals, AdV and EGTA were co-instilled. To exclude the possibility that any observed enhancement of expression was due to a hyperosmotic effect of the EGTA solution, a 20% mannitol solution (osmolarity similar to 0.4M EGTA) was included as a control in both the pre-treatment and co-instillation models.

mouse trachea [2] = assay: Intranasal instillation of Ad2βgal-4, quantitative chemiluminescent βgal assay of trachea; assay type: in vivo
Procedure: as §1
To quantify βgal expression, mice were sacrificed with an intraperitoneal injection of Somlethal (King Pharmaceuticals, Bristol, Tenn.) as described by Kaplan et al (1998), and samples of trachea from individual mice were homogenized in lysis buffer. βgal activity was measured with a commercial kit (Galactolight, Tropix, Bedford, Mass.). Protein concentration in the homogenate was measured using DC reagent (Bio-Rad, Hercules, Calif.). Results are expressed as relative light units (RLU) per milligram of total protein.

mouse trachea [3] = assay: Aerosolized Ad2βgal-4 after intranasal pre-treatment, X-gal staining; assay type: in vivo
Procedure: Viral aerosols were generated using a MiniHEART low flow jet nebulizer (Vortran, Sacramento, Calif.). The nebulizer was operated at 50 psi with compressed medical grade air at the maximum flow rate (˜2.21 pm). Animals were exposed to the aerosol in a whole-body exposure chamber. Ten ml of an Ad2βgal-4 solution (5×10^10 IU) was aerosolized over approximately one hour. Some mice were pre-treated with 50 μl of dH2O or EGTA solution by intranasal instillation 0, 15, 30, or 60 min before aerosolization, while others received no treatment prior to exposure to aerosol. X-gal staining was performed 3 days post aerosolization.
as §2

[4] = tested on: columnar epithelial cells in mouse trachea; assay: Light and electron microscopy of trachea; assay type: in vivo
From the text: Tracheas stained with X-gal were removed from the fixing solution and processed for light and electron microscopy using standard procedures. Briefly, the tissues were washed with PBS, dried in alcohols, embedded in glycol methacrylate (GMA) and stained with nuclear fast red. The Ogal-stained cells were identified by light microscopy. For electron microscopy, the fixed tissues were washed three times in Sabatini's solution (1×PBS containing 6.8% sucrose), and postfixed with 1% osmium tetroxide in 0.1 M cacodylate buffer (pH7.4) for an hour, followed by three washes with Sabatini's solution. The samples were then dehydrated with a graded series of alcohols (30, 50, 75, 90 and 100 % for 15 min each), followed by treatments with propylene oxide (15 min), a 1:1 Epon-propylene oxide mix (1 h), and three incubations in pure Epon (3 h, 3 h and overnight). Polymerization was at 64° C. overnight. After embedding, ultrathin sections were cut (MT2 Sorvall ultramicrotome) and stained with lead citrate and uranyl acetate and examined with a JEOL 100CX transmission electron microscope (TEM).

[5] = tested on: epithelial tight junctions of mouse trachea; assay: Lanthanum precipitation in trachea under TEM; assay type: in vivo; conditions: treated animals vs control animals
Procedure: Openings in tight junctions were visualized using a method described previously (Shaklai and Tavassoli, 1977; and Schneeberger and McCormack, 1984) with modifications. Briefly, mouse trachea was fixed with 2.5% glutaraldehyde, 1% lanthanum nitrate in 0.1 M cacodylate buffer, pH 7.4, for 4 to 6 h at […]. The trachea was then rinsed and washed 16 h with three changes of ice-cold 6.8% sucrose in 0.1 M cacodylate buffer ˜pH 7.4). The samples were postfixed in 1% OsO4 in 0.1 M cacodylate buffer containing 1% lanthanum nitrate pH 7.4 at 4° C. for 1 h, and dehydrated and then embedded in epoxy resin.

tight junctions = conditions: compared with EDTA; cited from earlier work
AdV = assay: Effect on AdV titer assessed on 293 cells; conditions: concentrations up to 0.4 M
Procedure: To rule out the possibility that EGTA might enhance the activity of AdV, the effects of EGTA on AdV titer were assessed on 293 cells.

In the case of `O=C(O)CN(CCOCCOCCN(CC(=O)O)CC(=O)O)CC(=O)O` [EGTA, Ethylene glycol bis(B-aminoethyl ether) N,N,N′,N′-tetraacetic acid], the “Effects of Tight Junction Disrupting Compounds on Cationic Amphiphile: DNA Complex Binding” value (polarized NHBE cells; Table 1, grades Very Effective / Mildly Effective) is reported as “Very Effective”, the complex internalization (polarized NHBE cells; fully polarized NHBE cells pretreated before incubation with complexes) is reported as “increased dramatically” and the toxicity (polarized NHBE cells; pretreatment of fully polarized NHBE cells) is reported as “minimal toxicity”. For the same compound, the “increasing the amount of internalized complex, compared with other reagents known to open tight junctions” value (polarized NHBE cells; vs EDTA, poly-lysine, sodium caprate, decanoylcarnitine, sodium glycocholate) was “most effective”, the “X-gal staining in the trachea” value (mouse trachea [1]; 0.4M pre-treatment group) was “most consistent and highest X-gal staining” and the “X-gal staining in the trachea” value (mouse trachea [1]; treated mice vs AdV alone, 2×10^8 IU) was “marked increase”. The “gene expression in trachea, primary bronchi and small airways (X-gal staining)” value (mouse trachea [1]; virus instilled 0.5 h after treatment) was “significantly enhanced”, the “time between treatment and AdV instillation giving maximal enhancement of β-gal expression” value (mouse trachea [2]; 0.1M and 0.4M, FIG. 5B) was 0.5 h and the “tracheal gene expression relative to co-instilling AdV with 0.05M EGTA” value (mouse trachea [2]; pre-treated with 0.05 and 0.1M, FIG. 5A) was greater than 6 fold. For the same compound, the “X-gal stained cells in trachea after AdV aerosol” value (mouse trachea [3]; 50 μl of 0.1 M intranasal 30 min prior to aerosol) was “significant number of positively stained cells”, the “X-gal stained cells in trachea after AdV aerosol” value (mouse trachea [3]; pretreated 1 h prior to aerosol) was “no significant increase” and the “airway epithelial cell damage by EM” value ([4]; 0.4M) was “some damaged airway epithelial cells were observed”. The “cells transduced by AdV in cartilaginous airways” value ([4]; treated prior to AdV instillation) was “localized to columnar epithelial cells”, the “penetration of lanthanum precipitates through epithelial tight junctions” value [5] was “penetrated through the epithelial tight junctions” and the “effectiveness at disrupting tight junctions” value (tight junctions) was “more effective than EDTA”. The “effect on virus activity” value (AdV) was “no measurable effect”.
